# Tested on: phorbol-induced inflammation (edema) of mouse ears
# Test: Inhibition of Mouse Ear Edema - Standard Protocol (topical, PMA-induced)
# Assay type: in vivo
# Conditions: for Inhibition of mouse ear edema: relative to PMA control
# Description: Cyclomarin-A was tested by measuring inhibition of phorbol-induced inflammation (edema) of mouse ears. […] The compound is topically applied in acetone to the inside pinnae of the ears of mice in a solution containing the edema-causing irritant, i.e. phorbol 12-myristate 13-acetate (PMA). PMA alone (2 microgram per ear) or in combination with varying amounts of cyclomarin-A was applied to the left ears of (5 mice per treatment group). Acetone was applied to all right ears. After a 3-hour and 20-minute incubation at 23° C., the mice were sacrificed, the ears removed and bores taken and weighed. Edema was measured by subtracting the weight of the right ear (acetone control) from the weight of the left ear (treated). The results were recorded as a percent decrease (inhibition) or percent increase (potentiation) in edema relative to the PMA control group edema.
substance,measurement,setting,value
cyclomarin-A,Inhibition of mouse ear edema,5 ug/ear with PMA 2 microgram per ear,3.0%
same,Inhibition of mouse ear edema,10 ug/ear with PMA 2 microgram per ear,39.0%
same,Inhibition of mouse ear edema,25 ug/ear with PMA 2 microgram per ear,57.0%
same,Inhibition of mouse ear edema,50 ug/ear with PMA 2 microgram per ear,88.0%
same,topical anti-inflammatory activity,general statement,exhibit topical anti-inflammatory activity

# Reference: patent US5593960A, “Cyclic heptapeptide anti-inflammatory agent” (The Regents of the University of California, priority 1995, dated 1997)
